Test results as given in patent US12312359B2 (Vitae Pharmaceuticals, LLC, priority 2016, dated 2025).
pEC50, pIC50: −log10 of the molar value.

Columns and labels:
[1] = target: T1, biotinylated wild-type menin and MLL-AF9 fusion protein (menin/MLL binding) (Homo sapiens, UniProt O00255); assay: Assay 1: menin/MLL binding AlphaLISA assay, wild-type menin; conditions: Table 30; column head does not say wild-type or mutated menin
T1 construct: made in house; host or cells: menin: E. coli; MLL-AF9-FLAG: HEK293 cells, used as cleared lysate
T1 sequence (O00255 1-610): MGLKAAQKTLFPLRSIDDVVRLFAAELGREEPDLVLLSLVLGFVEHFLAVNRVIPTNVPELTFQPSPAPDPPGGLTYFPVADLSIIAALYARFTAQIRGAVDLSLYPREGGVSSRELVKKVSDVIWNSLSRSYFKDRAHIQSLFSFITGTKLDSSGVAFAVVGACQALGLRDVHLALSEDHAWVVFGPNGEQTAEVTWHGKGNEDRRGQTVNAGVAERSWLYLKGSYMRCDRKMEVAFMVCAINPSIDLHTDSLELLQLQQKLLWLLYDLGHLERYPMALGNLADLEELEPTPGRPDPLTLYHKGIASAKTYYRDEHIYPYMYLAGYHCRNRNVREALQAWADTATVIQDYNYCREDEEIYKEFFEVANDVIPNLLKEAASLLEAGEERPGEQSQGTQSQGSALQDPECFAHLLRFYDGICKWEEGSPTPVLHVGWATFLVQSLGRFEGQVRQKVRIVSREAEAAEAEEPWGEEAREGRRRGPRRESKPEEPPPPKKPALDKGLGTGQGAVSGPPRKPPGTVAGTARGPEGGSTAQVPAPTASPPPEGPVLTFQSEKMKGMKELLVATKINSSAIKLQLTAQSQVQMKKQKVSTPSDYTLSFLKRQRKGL
Outline: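 Compound was preincubated 30 min at room temperature with biotinylated menin (5 nM) and MLL-AF9-FLAG lysate from HEK293 cells, pH 7.4 buffer with 5% DMSO and DTT. Bead-based Alpha signal after 60 min with streptavidin donor and anti-FLAG acceptor beads; four-parameter logistic fit gave IC50.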

[2] = test system: human acute monocytic leukemia cell line MV-4-11; assay: Assay 2: cell proliferation assay (ATP quantitation, CellTiter-Glo), MV-4-11; format: cell-based; conditions: MV-4-11 cells
Outline: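 Read-out is CellTiter-Glo luminescence quantifying ATP. Compound exposure lasted 72 h at 37° C., 5% CO2, with 1.67×10^4 MV-4-11 cells per well in 10% FBS medium, alongside HL-60 toxicity-control cells.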

| Structure (SMILES) | pIC50 [1] | pEC50 ([2]; Homo sapiens, MV4-11, 72 h) | pEC50 ([2]; 72 h) |
| --- | --- | --- | --- |
| CC(C)C(=O)N(CCO)c1cc(F)ccc1Oc1cncnc1N1CCC2(CCN(Cc3ccc4[nH]c(=O)[nH]c4c3)C2)C1 (centres unmarked) [Example 185, N-(5-fluoro-2-((4-(7-((2-oxo-2,3-dihydro-1H-benzo[d]imidazol-5-yl)methyl)-2,7-diazaspiro[4.4]nonan-2-yl)pyrimidin-5-yl)oxy)phenyl)-N-(2-hydroxyethyl)iso-butyramide] | > 7.00 | 6.00 to 7.00 |  |
| CC(C)c1ncncc1-c1cc(F)ccc1Oc1cncnc1N1CC2(CC(NCC3CCCCC3)CO2)C1 (centres unmarked) [Example 184, N-(cyclohexylmethyl)-2-(5-(4-fluoro-2-(4-isopropylpyrimidin-5-yl)phenoxy)pyrimidin-4-yl)-5-oxa-2-azaspiro[3.4]octan-7-amine] | > 7.00 | 6.00 to 7.00 |  |
| CC(C)N(C)C(=O)c1cc(F)ccc1Oc1cncnc1N1CC2(CN(CC[C@H]3CC[C@H](NC(=O)OC(C)(C)C)CC3)C2)C1 [Example 134, tert-butyl ((1r,4r)-4-(2-(6-(5-(4-fluoro-2-(isopropyl(methyl)carbamoyl)phenoxy)pyrimidin-4-yl)-2,6-diazaspiro[3.3]heptan-2-yl)ethyl)cyclohexyl) carbamate] | > 7.00 | 6.00 to 7.00 |  |
| CC(C)c1ncncc1-c1cc(F)ccc1Oc1cncnc1N1CC2(CCN(C(=O)Cc3ccc(C#N)cc3)C2)C1 [Example 149, 4-(2-(2-(5-(4-fluoro-2-(4-isopropylpyrimidin-5-yl)phenoxy)pyrimidin-4-yl)-2,6-diazaspiro[3.4]octan-6-yl)-2-oxoethyl)benzonitrile] | > 7.00 | > 7.00 |  |
| CCN(C(=O)C(C)C)c1cc(F)ccc1Oc1cncnc1N1CC2(CCN(CC3CCC(F)(F)CC3)C2)C1 [Example 137, N-(2-((4-(6-((4,4-difluorocyclohexyl)methyl)-2,6-diazaspiro[3.4]octan-2-yl)pyrimidin-5-yl)oxy)-5-fluorophenyl)-N-ethylisobutyramide] | > 7.00 | 6.00 to 7.00 |  |
| CC(C)N(C(=O)c1cc(F)ccc1Oc1cncnc1N1CCC2(CCN(Cc3ccc4c(c3)NC(=O)C4(C)C#N)C2)C1)C(C)C (centres unmarked) [Example 90, 2-((4-(7-((3-cyano-3-methyl-2-oxoindolin-6-yl)methyl)-2,7-diazaspiro[4.4]nonan-2-yl)pyrimidin-5-yl)oxy)-5-fluoro-N,N-diisopropylbenzamide] | > 7.00 | > 7.00 |  |
| CCn1c(=O)[nH]c2cc(CN3CCC4(CCN(c5ncncc5Oc5ccc(F)cc5-c5ccc(C#N)cc5C5CC5)C4)C3)ccc21 (centres unmarked) [Example 191, 2-cyclopropyl-2′-((4-(7-((1-ethyl-2-oxo-2,3-dihydro-1H-benzo[d]imidazol-5-yl)methyl)-2,7-diazaspiro[4.4]nonan-2-yl)pyrimidin-5-yl)oxy)-5′-fluoro-[1,1′-biphenyl]-4-carbonitrile] | > 7.00 | > 7.00 |  |
| CC(C)N(C)C(=O)c1cc(F)ccc1Oc1cncnc1N1CC2(CC(NC3CCOCC3)C2)C1 [Example 92, 5-fluoro-N-isopropyl-N-methyl-2-((4-(6-((tetrahydro-2H-pyran-4-yl)amino)-2-azaspiro[3.3]heptan-2-yl)pyrimidin-5-yl)oxy)benzamide] | > 7.00 | 6.00 to 7.00 |  |
| CC(C)N(C(=O)c1cc(F)ccc1Oc1cncnc1N1CC2(CCN(CC(C)(C)C)C2)C1)C(C)C [Example 102, 5-fluoro-N,N-diisopropyl-2-((4-(6-neopentyl-2,6-diazaspiro[3.4]octan-2-yl)pyrimidin-5-yl)oxy)benzamide] | > 7.00 | > 7.00 |  |
| CC(C)N(CCO)C(=O)c1cc(F)ccc1Oc1cncnc1N1CCC2(CCN(Cc3ccc4[nH]c(=O)[nH]c4c3)C2)C1 (centres unmarked) [Example 5, 5-fluoro-N-(2-hydroxyethyl)-N-isopropyl-2-((4-(7-((2-oxo-2,3-dihydro-1H-benzo[d]imidazol-5-yl)methyl)-2,7-diazaspiro[4.4]nonan-2-yl)pyrimidin-5-yl)oxy)benzamide] | > 7.00 | > 7.00 |  |
| O=c1[nH]c2ccc(CN3CCC4(CCN(c5ncncc5Oc5ccc(F)cc5Cc5ccccc5)C4)C3)cc2[nH]1 (centres unmarked) [Example 77] | > 7.00 | ≤ 6.00 |  |
| CC(C)C(=O)N(C)c1cc(F)ccc1Oc1cncnc1N1CCC2(CCN(Cc3ccc4[nH]c(=O)[nH]c4c3)C2)C1 (centres unmarked) [Example 76, N-(5-fluoro-2-((4-(7-((2-oxo-2,3-dihydro-1H-benzo[d]imidazol-5-yl)methyl)-2,7-diazaspiro[4.4]nonan-2-yl)pyrimidin-5-yl)oxy)phenyl)-N-methylisobutyramide] | > 7.00 | > 7.00 |  |
| CCN(C(=O)C(C)C)c1cc(F)ccc1Oc1cncnc1N1CC2(CCN(CC3CCOCC3)C2)C1 [Example 156, N-ethyl-N-(5-fluoro-2-((4-(6-((tetrahydro-2H-pyran-4-yl)methyl)-2,6-diazaspiro[3.4]octan-2-yl)pyrimidin-5-yl)oxy)phenyl)iso-butyramide] | > 7.00 | 6.00 to 7.00 |  |
| Cc1cc(C#N)ccc1-c1cc(F)ccc1Oc1cncnc1N1CCC2(CCN(Cc3ccc4[nH]c(=O)[nH]c4c3)C2)C1 (centres unmarked) [Example 48, 5′-fluoro-2-methyl-2′-((4-(7-((2-oxo-2,3-dihydro-1H-benzo[d]imidazol-5-yl)methyl)-2,7-diazaspiro[4.4]nonan-2-yl)pyrimidin-5-yl)oxy)-[1,1′-biphenyl]-4-carbonitrile] | > 7.00 |  | 6.00 to 7.00 |
| CC(C)n1nccc1-c1cc(F)ccc1Oc1cncnc1N1CCC2(CCN(Cc3ccc4[nH]c(=O)[nH]c4c3)C2)C1 (single isomer, unassigned) [Example 197A, 5-((7-(5-(4-fluoro-2-(1-isopropyl-1H-pyrazol-5-yl)phenoxy)pyrimidin-4-yl)-2,7-diazaspiro[4.4]nonan-2-yl)methyl)-1,3-dihydro-2H-benzo[d]imidazol-2-one] | > 7.00 | > 7.00 |  |
| CC(C)N(C)C(=O)c1cc(F)ccc1Oc1cncnc1N1CCC2(CCN(Cc3ccc4c(c3)NC(=O)CO4)C2)C1 (centres unmarked) [Example 210, 5-fluoro-N-isopropyl-N-methyl-2-((4-(7-((3-oxo-3,4-dihydro-2H-benzo[b][1,4]oxazin-6-yl)methyl)-2,7-diazaspiro[4.4]nonan-2-yl)pyrimidin-5-yl)oxy)benzamide] | > 7.00 | 6.00 to 7.00 |  |
| CN(C(=O)c1cc(F)ccc1Oc1cncnc1N1CCC2(CCN(Cc3ccc4[nH]c(=O)[nH]c4c3)C2)C1)C(C)(C)C (centres unmarked) [Example 175, N-(tert-butyl)-5-fluoro-N-methyl-2-((4-(7-((2-oxo-2,3-dihydro-1H-benzo[d]imidazol-5-yl)methyl)-2,7-diazaspiro[4.4]nonan-2-yl)pyrimidin-5-yl)oxy)benzamide] | > 7.00 | ≤ 6.00 |  |
| CC(=O)Nc1ccc(CN2CCC3(CCN(c4ncncc4Oc4ccc(F)cc4-c4ccccc4C(C)C)C3)C2)cc1 (centres unmarked) [Example 221, N-(4-((7-(5-((5-fluoro-2′-isopropyl-[1,1′-biphenyl]-2-yl)oxy)pyrimidin-4-yl)-2,7-diazaspiro[4.4]nonan-2-yl)methyl)phenyl) acetamide] | > 7.00 | 6.00 to 7.00 |  |
| CC(C)c1ccccc1-c1cc(F)ccc1Oc1cncnc1N1CCC2(CCN(Cc3ccc4[nH]c(=O)[nH]c4c3)C2)C1 (centres unmarked) [Example 41, 5-((7-(5-((5-fluoro-2′-isopropyl-[1,1′-biphenyl]-2-yl)oxy)pyrimidin-4-yl)-2,7-diazaspiro[4.4]nonan-2-yl)methyl)-1H-benzo[d]imidazol-2(3H)-one] | > 7.00 | > 7.00 |  |
